Laboratory results taken from PMC9743090, “Induction of Ferroptosis in Glioblastoma and Ovarian Cancers by a New Pyrrole Tubulin Assembly Inhibitor” (Journal of Medicinal Chemistry, 2022).
Where “and” joins values, the source holds several entries; their conditions need not be identical. Equal values may be shown once.

Assays:
[1] = system: U-87 MG; test: In vivo U-87 MG xenograft, tumor size and tumor tissue analysis; set-up: species or system BALB/C^nu/nu mice
Procedure: (§1) Briefly, all 10 week-old female BALB/C^nu/nu mice (24 mice) were purchased from the Shanghai University of Traditional Chinese Medicine with Institutional Animal Care and Use Committee approval in accordance with institutional guidelines. All mice were randomly divided into four groups. In #1 group (4 mice), 1 × 10^8 cells/mL from U-87 MG at the logarithmic growth phase were harvested and inoculated subcutaneously, followed by intraperitoneal injection of 100 μL of 15 (25 mg/kg) every 2 days. In #2 group (4 mice), 1 × 10^8 cells/mL from U-87 MG at the logarithmic growth phase were harvested and inoculated subcutaneously, followed by intraperitoneal injection of 100 μL of saline every 2 days. In #3 group (4 mice), 1 × 10^8 cells/mL from SKOV-3 at the logarithmic growth phase were harvested and inoculated subcutaneously, followed by intraperitoneal injection of 100 μL 15 (25 mg/kg) every 2 days. In #4 group (4 mice), 1 × 10^8 cells/mL from SKOV-3 at the logarithmic growth phase were harvested and inoculated subcutaneously, followed by intraperitoneal injection of 100 μL of saline every 2 days. After continuous feeding for 40 days, the mice were sacrificed, and the tumors were removed. The tumors were weighed, and the volumes were calculated using the following formula: Tumor volume (cm^3) = (ab^2)/2 (a: the longest axis (cm), b: the shortest axis (cm)).
(§2) Briefly, fresh tissues were immersed in 4% paraformaldehyde (Sigma-Aldrich) for fixation at room temperature for 30 min. The tissues were then dehydrated in an ethanol gradient, embedded in paraffin, sectioned (thickness: 6 μm), and immersed in xylene for dewaxing. Tissue sections were blocked with immunohistochemical blocking solution (Beyotime Biotechnology Co., Ltd., Zhejiang, China) at 37 °C for 30 min. The blocking solution was then discarded, and the sections were washed three times at room temperature for 5 min, each with immunohistochemical washing solution (Beyotime Biotechnology). Then, primary antibodies (rabbit anti-GPX4 antibody [EPNCIR144] (ab125066), rabbit anti-ferritin heavy chain antibody [EPR18878] (ab183781), and rabbit anti-Ki67 antibody (ab15580), Abcam, MA, USA) were added and incubated at 37 °C for 45 min. After incubation, the antibody solution was discarded, and the sections were washed three times at room temperature for 5 min each with immunohistochemical washing solution (Beyotime Biotechnology). Then, the secondary antibody (goat anti-rabbit IgG H&L (Alexa Fluor 488), Abcam, MA, USA) was added, and the tissues were incubated at 37 °C for 45 min. After incubation, the antibody solution was discarded, and the sections were washed three times at room temperature for 5 min, each with immunohistochemical washing solution (Beyotime Biotechnology). Finally, immunofluorescence blocking solution (Sigma-Aldrich) was added, and the sections were mounted.
(§3) According to the instructions of the RNAprep pure Tissue Kit (TIANGEN Biotech (Beijing) China) Co., Ltd., Beijing, China), to about 20 mg of […] tissue specimen was added 800 μL of lysis solution, and the mixture was ground, homogenized, and centrifuged. To the supernatant, 200 μL of chloroform was added, and the mixture was mixed by inverting and centrifuged at 4 °C at 13,400 × g for 15 min. To the supernatant, two volumes of absolute ethanol were added, mixed by inversion, and centrifuged at 4 °C at 13,400 × g for 30 min. Ethanol precipitation and centrifugation of the supernatant were repeated. The RNA pellet was suspended with 500 μL of 75% ethanol and centrifuged at 13,400 × g at 4 °C for 5 min. The supernatant was discarded, the excess liquid was removed, and the pellet was dissolved in 300 μL of DECP water. One microliter of the RNA solution was used to measure the ratio of A260–A280 (generally 1.8–2.0) to determine the purity and approximate concentration of the RNA. […]

[2] = system: SKOV-3; test: In vivo SKOV-3 xenograft, tumor size and tumor tissue analysis; set-up: species or system BALB/C^nu/nu mice
Procedure: as §1, §2, §3

[3] = Metabolic stability in human liver microsomes; format: in vitro ADME
Procedure: Mouse (Sigma Aldrich, CD-1 male, pooled) and human microsomes (Sigma Aldrich, human, pooled) at 0.5 mg/mL were preincubated with the test compound 15 dissolved in DMSO at 1 μM in phosphate buffer 50 mM, pH 7.4, and 3 mM MgCl2 for 10 min at 37 °C. The reaction was then started by adding the cofactor mixture solution (NADP, glucose-6-phosphate, glucose-6-phosphate dehydrogenase in 2% NaHCO3). Samples were taken at 0, 10, 30, 45, and 60 min and added to acetonitrile to stop the reaction. Samples were then centrifuged, and the supernatant was analyzed by LC–MS/MS to quantify the amount of the compound. A control sample without the cofactor was always added to check the chemical stability of the test compound. […] A fixed concentration of verapamil was added in every sample as an internal standard for LC–MS/MS analyses. The percentage of the area of the test compound remaining at the various incubation times was calculated with respect to the area of the compound at time 0 min.
The rate constant, k (min^–1), derived for the exponential decay equation (peak area/IS vs time), was used to calculate the rate of Cli.
Samples were analyzed under the following conditions: UPLC Waters coupled with an API 3200 triple-quadrupole (ABSciex); eluents, (phase A) 95% water, 5% acetonitrile + 0.1% HCOOH, (phase B) 5% water, 95% acetonitrile + 0.1% HCOOH; flow rate, 0.3 mL/min; column, Gemini-Nx 5 μm C18 110A (50 × 2.00 mm) at 35 °C; injection volume, 10 μL. Source conditions ESI positive: T 400 °C, Gas 1 30, Gas 2 35, CUR 30, IS 5500, CAD 5.

[4] = 25 mg/kg i.p. every 2 days, day 40

## COc1cc(C(=O)c2cn(-c3ncccn3)cc2-c2ccco2)cc(OC)c1OC [Compound 15, (4-(Furan-2-yl)-1-(pyrimidyl-2-yl)-1H-pyrrol-3-yl)(3,4,5-trimethoxyphenyl)methanone]
[1]; 25 mg/kg i.p. every 2 days
  ATP level in tumor tissue vs control: significantly lower
  Fe2+ concentration in tumor tissue vs control: significantly higher
  LPO level in tumor tissue vs control: appreciably higher
  MDA level in tumor tissue vs control: appreciably higher
  T-GSH level in tumor tissue vs control: significantly lower
  lactic acid level in tumor tissue vs control: appreciably higher
[1]; [4]
  tumor size (volume and weight) vs saline control: significantly smaller
[1]; immunofluorescence staining
  CD31 expression in tumor tissue vs control: significantly lower expression
  FTH1 expression in tumor tissue vs control: significantly lower expression
  GPX4 expression in tumor tissue vs control: significantly lower expression
  Ki67 expression in tumor tissue vs control: significantly lower expression
[2]; 25 mg/kg i.p. every 2 days
  ATP level in tumor tissue vs control: significantly lower
  Fe2+ concentration in tumor tissue vs control: significantly higher
  LPO level in tumor tissue vs control: appreciably higher
  MDA level in tumor tissue vs control: appreciably higher
  T-GSH level in tumor tissue vs control: significantly lower
  lactic acid level in tumor tissue vs control: appreciably higher
[2]; [4]
  tumor size (volume and weight) vs saline control: significantly smaller
[2]; immunofluorescence staining
  CD31 expression in tumor tissue vs control: significantly lower expression
  FTH1 expression in tumor tissue vs control: significantly lower expression
  GPX4 expression in tumor tissue vs control: significantly lower expression
  Ki67 expression in tumor tissue vs control: significantly lower expression
[3]; HLM 0.5 mg/mL, 1 μM, n = 2
  Cli ± SD: 36 μL/min/mg protein and 35.9 ± 0.2 μL/min/mg protein
[3]; human, liver microsomes, pH 7.4, HLM 0.5 mg/mL, 1 μM, n = 2, read-out: t1/2 ± SD
  half-life at 1 h, 1 µM: 38.7 ± 0.2 min
[3]; pH 7.4, human liver microsomes, read-out: intrinsic clearance classification
  microsomal CLint at 1 μM: 1.8 to 48 µL/min/mg
